The results in this text go back to patent publication US12077483B2, “Modified amine lipids” (Intellia Therapeutics, Inc., priority 2018, dated 2024).

For data set [1], the system named is mouse TTR. The experiment in a line: Serum TTR ELISA in mice after LNP delivery. Conditions: mouse serum, relative to TSS control of same experiment. The class given is in vivo. The protocol:
For studies measuring in vivo editing in liver, CD-1 female mice were dosed at 0.1 mpk unless otherwise noted. Animals were euthanized at 6 or 7 days by exsanguinationvia cardiac puncture under isoflourane anesthesia. Liver tissue was collected from each animal for DNA extraction and analysis. Blood was collected into serum separator tubes or into tubes containing buffered sodium citrate for plasma as described herein. Cohorts of mice were measured for editing by Next-Generation Sequencing (NGS).
Blood was collected and the serum was isolated as indicated. The total mouse TTR serum levels were determined using a Mouse Prealbumin (Transthyretin) ELISA Kit (Aviva Systems Biology, Cat. OKIA00111). Briefly, sera were serial diluted with kit sample diluent, e.g. to a final dilution of 10,000-fold and/or 2,500-fold. The diluted sample was then added to the ELISA plates and the assay was then carried out according to directions. Serum TTR data from treatment groups are expressed as a percentage of vehicle control levels.
A general note: In an ELISA, binding on a coated surface is turned into a signal by an enzyme label.

A short description of data set [2]: LNP average particle size and polydispersity by dynamic light scattering. To be noted: LNP with the compound as amine lipid. The class given is physicochemical. The source says: The LNPs have a size of about 1 to about 1,000 nm, about 10 to about 500 nm, about 20 to about 500 nm, in a sub-embodiment about 50 to about 400 nm, in a sub-embodiment about 50 to about 300 nm, in a sub-embodiment about 50 to about 200 nm, and in a sub-embodiment about 50 to about 150 nm, and in another sub-embodiment about 60 to about 120 nm. Preferably, the LNPs have a size from about 60 nm to about 100 nm. The average sizes (diameters) of the fully formed LNP, may be measured by dynamic light scattering on a Malvern Zetasizer. The LNP sample is diluted in phosphate buffered saline (PBS) so that the count rate is approximately 200-400 kcps. The data is presented as a weighted average of the intensity measure.
In some embodiments, the LNPs have a size of about 75 to about 120 nm. In some embodiments, the LNPs have a size of about 75 to about 100 nm. Unless indicated otherwise, all sizes referred to herein are the average sizes (diameters) of the fully formed nanoparticles, as measured by dynamic light scattering on a Malvern Zetasizer. The nanoparticle sample is diluted in phosphate buffered saline (PBS) so that the count rate is approximately 200-400 kcps. The data is presented as a weighted-average of the intensity measure (Z-average diameter).
Dynamic Light Scattering (“DLS”) is used to characterize the polydispersity index (“pdi”) and size of the LNPs of the present disclosure. DLS measures the scattering of light that results from subjecting a sample to a light source. PDI, as determined from DLS measurements, represents the distribution of particle size (around the mean particle size) in a population, with a perfectly uniform population having a PDI of zero. Electropheretic light scattering is used to characterize the surface charge of the LNP at a specified pH. The surface charge, or the zeta potential, is a measure of the magnitude of electrostatic repulsion/attraction between particles in the LNP suspension. Asymmetric-Flow Field Flow Fractionation—Multi-Angle Light Scattering (AF4-MALS) is used to separate particles in the composition by hydrodynamic radius and then measure the molecular weights, hydrodynamic radii and root mean square radii of the fractionated particles. […] Nanoparticle tracking analysis (NTA, Malvern Nanosight) can be used to determine particle size distribution as well as particle concentration. LNP samples are diluted appropriately and injected onto a microscope slide. A camera records the scattered light as the particles are slowly infused through field of view. After the movie is captured, the Nanoparticle Tracking Analysis processes the movie by tracking pixels and calculating a diffusion coefficient. This diffusion coefficient can be translated into the hydrodynamic radius of the particle. The instrument also counts the number of individual particles counted in the analysis to give particle concentration.
LNP compositions are analyzed for average particle size, polydispersity index (pdi), total RNA content, encapsulation efficiency of RNA, and zeta potential. LNP compositions may be further characterized by lipid analysis, AF4-MALS, NTA, and/or cryo-EM. Average particle size and polydispersity are measured by dynamic light scattering (DLS) using a Malvern Zetasizer DLS instrument. LNP samples were diluted with PBS buffer prior to being measured by DLS. Z-average diameter which is an intensity-based measurement of average particle size was reported along with number average diameter and pdi. A Malvern Zetasizer instrument is also used to measure the zeta potential of the LNP. Samples are diluted 1:17 (50 μL into 800 μL) in 0.1×PBS, pH 7.4 prior to measurement.

Data set [3] is described as follows: pKa of amine lipid by TNS fluorescence. Format: physicochemical. Conditions: probe TNS (6-(p-toluidino)-2-naphthalenesulfonic acid sodium salt), unformulated amine lipid in ethanol, sodium phosphate buffers -9.0. The protocol:
The pKa of each amine lipid was determined according to the method in Jayaraman, et al. (Angewandte Chemie, 2012) with the following adaptations. The pKa was determined for unformulated amine lipid in ethanol. Lipid stock solutions (2.94 mM) were diluted into Sodium Phosphate Buffers (0.1 M, Boston Bioproducts) of different pH (pH-range: 4.5-9.0) yielding a final lipid concentration of approx. 100 μM. The test samples were supplemented with TNS {6-(p-Toluidino)-2-naphthalenesulfonic acid sodium salt}, incubated and the fluorescence intensity was measured using excitation and emission wavelengths of 321 nm and 448 nm, respectively. The recorded data were normalized and the respective pKa values were derived from sigmoidal fitting.

Data set [4] is described as follows: RNA encapsulation efficiency of LNP (Ribogreen fluorescence assay). Format: physicochemical. Conditions: LNP with the compound as amine lipid. On the procedure: A fluorescence-based assay (Ribogreen®, ThermoFisher Scientific) is used to determine total RNA concentration and free RNA. Encapsulation efficiency is calculated as (Total RNA—Free RNA)/Total RNA. LNP samples are diluted appropriately with 1× TE buffer containing 0.2% Triton-X 100 to determine total RNA or 1× TE buffer to determine free RNA. Standard curves are prepared by utilizing the starting RNA solution used to make the compositions and diluted in 1× TE buffer+/−0.2% Triton-X 100. Diluted RiboGreen® dye (according to the manufacturer's instructions) is then added to each of the standards and samples and allowed to incubate for approximately 10 minutes at room temperature, in the absence of light. A SpectraMax M5 Microplate Reader (Molecular Devices) is used to read the samples with excitation, auto cutoff and emission wavelengths set to 488 nm, 515 nm, and 525 nm respectively. Total RNA and free RNA are determined from the appropriate standard curves.
Encapsulation efficiency is calculated as (Total RNA−Free RNA)/Total RNA. The same procedure may be used for determining the encapsulation efficiency of a DNA-based cargo component. For single-strand DNA, Oligreen Dye may be used and for double-strand DNA, Picogreen Dye.

Where [5] appears, read: Expt. 2, composition ratio (mol %) 50/9/39.5/3 for Cmpnd 49, 50/9/39.5/1.5 for the others.
Setting [6] is: Expt. 1, composition ratio (mol %) 50/9/38/3 for Cmpnd 49, 50/10/38.5/1.5 for the others.
[7] abbreviates: Expt. 10, composition ratio (mol %) 50/9/38/3 for Cmpnd 49, 50/10/38.5/1.5 for the others.
Where [8] appears, read: Expt. 5, composition ratio (mol %) 50/10/38.5/1.5.
Setting [9] is: Expt. 4, composition ratio (mol %) 50/9/38/3 for Cmpnd 49, 50/10/38.5/1.5 for the others.

Structures are written as SMILES.

In general, pKa refers to the pH at which an ionisable group is half protonated. `CCCCC/C=C\C/C=C\CCCCCCCC(=O)OCC(COC(=O)CCCCCCC/C=C\C/C=C\CCCCC)OC(=O)CCC(CCCC)OC(=O)NCC1CCCN1C` (centres unmarked) [Compound 67, 2-((4-((((1-methylpyrrolidin-2-yl)methyl)carbamoyl)oxy)octanoyl)oxy)propane-1,3-diyl (9Z,9′Z,12Z,12′Z)-bis(octadeca-9,12-dienoate)]: in data set [1] (dose 0.03 mpk), the “Serum TTR % TSS” value is recorded as 65.41 % TSS. In data set [2] (setting [5]), the “Num Ave Size (nm)” value is reported as 82.14 nm, the PDI amounted to 0.043 and the “Z-Ave Size (nm)” value was 102.20 nm. Besides, the pKa in data set [3] came out at 6.43. Further, the “Encapsulation (%)” value in data set [4] (setting [5]) was found to be 99%.
Regarding `CCCCC/C=C\C/C=C\CCCCCCCC(=O)OCC(COC(=O)CCCCCCCC(=O)OCCCCCCCCCCC)OC(=O)CC(CCCCCCCC)OC(=O)NCCN(C)CC` (centres unmarked) [Compound 62, 1-(3-methyl-13-((((9Z,12Z)-octadeca-9,12-dienoyl)oxy)methyl)-9-octyl-7,11-dioxo-8,12-dioxa-3,6-diazatetradecan-14-yl) 9-undecyl nonanedioate], in data set [1] (dose 0.1 mpk), the “Serum TTR % TSS” value was determined as 57.89 % TSS. Further, in data set [2] (setting [6]), the “Num Ave Size (nm)” value worked out at 87.26 nm, the PDI came to 0.04 and the “Z-Ave Size (nm)” value is given as 106.40 nm. The pKa in data set [3] worked out at 6.32. In data set [4] (setting [6]), the “Encapsulation (%)” value was 97%.
Consider `CCCCC/C=C\C/C=C\CCCCCCCC(=O)OCC(COC(=O)CCCCCCCC(=O)OCCCCCCCCCCC)OC(=O)CCCC(CCCCCCCC)OC(=O)NCCN(C)CC` (centres unmarked) [Compound 64, 1-(3-methyl-15-((((9Z,12Z)-octadeca-9,12-dienoyl)oxy)methyl)-9-octyl-7,13-dioxo-8,14-dioxa-3,6-diazahexadecan-16-yl) 9-undecyl nonanedioate], for which the “Serum TTR % TSS” value in data set [1] (dose 0.1 mpk) stood at 85.39 % TSS. In addition, in data set [2] (setting [6]), the “Num Ave Size (nm)” value is recorded as 86.19 nm, the PDI came to 0.02 and the “Z-Ave Size (nm)” value turned out to be 106.40 nm. Besides, the pKa in data set [3] amounted to 6.3. The “Encapsulation (%)” value in data set [4] (setting [6]) worked out at 97%.
`CCCCC/C=C\C/C=C\CCCCCCCC(=O)OCC(COC(=O)CCCCCCC/C=C\C/C=C\CCCCC)OC(=O)CCC(CCCCCCCC)OC(=O)NCCN(CC)CC` (centres unmarked) [Compound 96, 2-((4-(((2-(diethylamino)ethyl)carbamoyl)oxy)dodecanoyl)oxy)propane-1,3-diyl (9Z,9′Z,12Z,12′Z)-bis(octadeca-9,12-dienoate)]: the “Serum TTR % TSS” value in data set [1] (dose 0.03 mpk) is reported as 70% TSS. Also, in data set [2] (setting [7]), the “Num Ave Size (nm)” value is recorded as 73 nm, the PDI came to 0.03 and the “Z-Ave Size (nm)” value is 89 nm. In data set [3], the pKa was determined as 6.14. The Encapsulation (%) in data set [4] (setting [7]) is 98%.
With `CCCCC/C=C\C/C=C\CCCCCCCC(=O)OCC(COC(=O)CCCCCCC/C=C\C/C=C\CCCCC)OC(=O)CCC(CCCCCCCC)OC(=O)NCCN(C)C` (centres unmarked) [Compound 91, 2-((4-(((2-(dimethylamino)ethyl)carbamoyl)oxy)dodecanoyl)oxy)propane-1,3-diyl (9Z,9′Z,12Z,12′Z)-bis(octadeca-9,12-dienoate)], in data set [1] (dose 0.03 mpk), the “Serum TTR % TSS” value is recorded as 89% TSS. Moreover, in data set [2] (setting [7]), the “Num Ave Size (nm)” value is recorded as 82 nm, the PDI is recorded as 0.01 and the “Z-Ave Size (nm)” value came to 97 nm. Also, the pKa in data set [3] turned out to be 6.48. The Encapsulation (%) in data set [4] (setting [7]) was found to be 98%.
With `CCCCC/C=C\C/C=C\CCCCCCCC(=O)OCC(COC(=O)CCCCCCC/C=C\C/C=C\CCCCC)OC(=O)CCC(CCCCCC)OC(=O)NCCN1CCC1` (centres unmarked) [Compound 77, 2-((4-(((2-(azetidin-1-yl)ethyl)carbamoyl)oxy)decanoyl)oxy)propane-1,3-diyl (9Z,9′Z,12Z,12′Z)-bis(octadeca-9,12-dienoate)], the “Serum TTR % TSS” value in data set [1] (dose 0.03 mpk) was determined as 68.3 % TSS. In addition, the “Serum TTR % TSS” value in data set [1] (dose 0.1 mpk) came out at 80.6 % TSS. Moreover, in data set [2] (setting [8]), the “Num Ave Size (nm)” value is listed as 78 nm, the PDI is 0.08 and the “Z-Ave Size (nm)” value came out at 104.00 nm. Also, in data set [3], the pKa came out at 7.23. Moreover, the “Encapsulation (%)” value in data set [4] (setting [8]) is on record as 98%.
For `CCCCCCCCCCCOC(=O)CCCCCCCC(=O)OCC(COC(=O)CCCCCCCC(=O)OCCCCCCCCCCC)OC(=O)CCCC(CCCCCCCC)OC(=O)NCCN(C)CC` (centres unmarked) [Compound 61, O′1,O1-(2-((5-(((2-(ethyl(methyl)amino)ethyl)carbamoyl)oxy)tridecanoyl)oxy)propane-1,3-diyl) 9,9′-diundecyl di(nonanedioate)], the “Serum TTR % TSS” value in data set [1] (dose 0.1 mpk) is listed as 81.48 % TSS. Further, in data set [2] (setting [6]), the “Num Ave Size (nm)” value stood at 79.7 nm, the PDI is listed as 0.06 and the “Z-Ave Size (nm)” value was determined as 102.00 nm. Further, the pKa in data set [3] is 6.29. The “Encapsulation (%)” value in data set [4] (setting [6]) is listed as 97%.
Turning to `CCCCC/C=C\C/C=C\CCCCCCCC(=O)OCC(COC(=O)CCCCCCC/C=C\C/C=C\CCCCC)OC(=O)CCC(CCCCCCC)OC(=O)NCCN(C)CC` (centres unmarked) [Compound 73, 2-((4-(((2-(ethyl(methyl)amino)ethyl)carbamoyl)oxy)undecanoyl)oxy)propane-1,3-diyl (9Z,9′Z,12Z,12′Z)-bis(octadeca-9,12-dienoate)], the “Serum TTR % TSS” value in data set [1] (dose 0.03 mpk) was 25% TSS. In data set [1] (dose 0.1 mpk), the “Serum TTR % TSS” value is 4% TSS. In data set [2] (setting [9]), the “Num Ave Size (nm)” value worked out at 76.59 nm, the PDI was determined as 0.029 and the “Z-Ave Size (nm)” value is recorded as 95.81 nm. For the same compound, the pKa in data set [3] came to 6.41. For the same compound, the “Encapsulation (%)” value in data set [4] (setting [9]) came to 97%.
